Measurements as given in PMC3973950, “Synthesis of 5-arylidine amino-1,3,4-thiadiazol-2-[(N-substituted benzyol)]sulphonamides endowed with potent antioxidants and anticancer activity induces growth inhibition in HEK293, BT474 and NCI-H226 cells” (Medicinal Chemistry Research, 2013).

Assays:
[1] = Superoxide anion radical scavenging (NBT/NADH/PMS); assay type: biochemical; details: Conc. ± SD; standard catechin; read-out: IC50 inhibitory concentration, Superoxide anion
[2] = In vitro cytotoxicity by MTT assay, NCI-H226; assay type: cell-based; details: human, NCI-H226 lung cancer cells, 0.015 μM, read-out: % Cytotoxicity (100 − % cell survival) of NCI-H226 cell line
Method in brief: (§1)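 After 72 h of compound exposure at 37 °C in 5 % CO2, MTT was added for 4 h and the propanol-solubilised formazan was read at 490 nm. Monolayers (~10,000 cells/well, RPMI-1640 plus 10 % newborn calf serum) had been allowed to form for 24 h beforehand.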

[3] = test system: NCI-H226 (lung cancer cell line); assay: In vitro cytotoxicity by MTT assay, NCI-H226; assay type: cell-based; details: Homo sapiens, 72 h, read-out: % Cytotoxicity (100 − % cell survival) of NCI-H226 cell line; for cytotoxicity at 0.005 µM: NCI-H226, 0.005 μM; for cytotoxicity at 0.045 µM: NCI-H226, 0.045 μM; for cytotoxicity at 0.13 µM: NCI-H226, 0.13 μM; for cytotoxicity at 0.41 µM: NCI-H226, 0.41 μM; for cytotoxicity at 1.23 µM: NCI-H226, 1.23 μM; for cytotoxicity at 3.7 µM: NCI-H226, 3.7 μM; for cytotoxicity at 11.11 µM: NCI-H226, 11.11 μM; for cytotoxicity at 33.33 µM: NCI-H226, 33.33 μM; for cytotoxicity at 100 µM: NCI-H226, 100 μM
Method in brief: as §1

[4] = test system: HEK 293, M468 and NCI-H226; assay: In vitro cytotoxicity by MTT assay, summary over all cell lines; assay type: cell-based; details: on all cell lines
Method in brief: as §1

[5] = test system: BT474 (breast cancer cell line); assay: In vitro cytotoxicity by MTT assay, BT474; assay type: cell-based; details: Homo sapiens, 72 h; for cytotoxicity at 0.005 µM: BT-474, 0.005 μM; for cytotoxicity at 0.005 µM / cytotoxicity at 0.015 µM / cytotoxicity at 0.045 µM / cytotoxicity at 0.13 µM / cytotoxicity at 0.41 µM / cytotoxicity at 1.23 µM / cytotoxicity at 3.7 µM / cytotoxicity at 11.11 µM / cytotoxicity at 33.33 µM / cytotoxicity at 100 µM: read-out: % cytotoxicity (100 − % cell survival) of BT474 cell line; for cytotoxicity at 0.015 µM: BT-474, 0.015 μM; for cytotoxicity at 0.045 µM: BT-474, 0.045 μM; for cytotoxicity at 0.13 µM: BT-474, 0.13 μM; for cytotoxicity at 0.41 µM: BT-474, 0.41 μM; for cytotoxicity at 1.23 µM: BT-474, 1.23 μM; for cytotoxicity at 3.7 µM: BT-474, 3.7 μM; for cytotoxicity at 11.11 µM: BT-474, 11.11 μM; for cytotoxicity at 33.33 µM: BT-474, 33.33 μM; for cytotoxicity at 100 µM: BT-474, 100 μM
Method in brief: as §1

[6] = In vitro cytotoxicity by MTT assay, HEK 293; assay type: cell-based, human; details: human, HEK 293 cells, read-out: % cytotoxicity (100 − % cell survival) of HEK 293 cell line
Method in brief: as §1

[7] = Nitric oxide radical scavenging (sodium nitroprusside, Griess reaction); assay type: biochemical; details: Conc. ± SD; standard curcumin; read-out: IC50 inhibitory concentration, Nitric oxide radical
Protocol: Nitric oxide generated from sodium nitroprusside in aqueous solution at physiological pH interacts with oxygen to produce nitrite ions, which were measured by the Griess reaction (Marcocci et al., [1994]; Green et al., [1982]). Scavenger of nitric oxide competes with oxygen leading to reduced production of nitric oxide (Mondal et al., [2006]). The reaction mixture (3 mL) containing sodium nitroprusside (10 mM) in phosphate-buffered saline (PBS) and the compounds in different concentrations (10, 20, 30, 40, 50 and 100 μg) were incubated at 25 °C for 150 min. At every 30-min interval, the incubated sample (0.5 mL) was removed and Griess reagent (1 % sulphanilamide, 0.1 % naphthylethylene diamine dihydrochloride in 2 % H3PO4) (0.5 mL) was added. The absorbance of the chromophore formed was measured at 546 nm. All the analyses were performed in triplicate, and the results were averaged. The percentage inhibition of nitric oxide generated was measured by comparing the absorbance values of control and test.

Compound | melting point [°C] | IC50 [1] [µM] | cytotoxicity at 72 h, 0.015 µM [2] [%] | cytotoxicity at 0.005 µM [3] [%] | cytotoxicity at 0.045 µM [3] [%] | cytotoxicity at 0.13 µM [3] [%] | cytotoxicity at 0.41 µM [3] [%] | cytotoxicity at 1.23 µM [3] [%] | cytotoxicity at 3.7 µM [3] [%] | cytotoxicity at 11.11 µM [3] [%] | cytotoxicity at 33.33 µM [3] [%] | cytotoxicity at 100 µM [3] [%] | cytotoxicity at 0.005 µM [5] [%] | cytotoxicity at 0.015 µM [5] [%] | cytotoxicity at 0.045 µM [5] [%] | cytotoxicity at 0.13 µM [5] [%] | cytotoxicity at 0.41 µM [5] [%] | cytotoxicity at 1.23 µM [5] [%] | cytotoxicity at 3.7 µM [5] [%] | cytotoxicity at 11.11 µM [5] [%] | also measured
O=C(NS(=O)(=O)c1nnc(N=Cc2ccc(Cl)cc2)s1)c1ccccc1 [Compound 9b, N-({5-[(4-Chlorobenzylidene)amino]-1,3,4-thiadiazol-2-yl}sulfonyl)benzamide] | 212 to 214 | 76.3 ± 11.8 | 29.5 | 27.8 | 35.4 | 35.7 | 36.1 | 36.5 | 36.6 | 37 | 37.7 | 38 | 38.8 | 39.4 | 41.5 | 42 | 46.1 | 50.1 | 56.3 | 60.7 | cytotoxic activity compared with all synthesized compounds [4]: more potent; cytotoxicity at 33.33 µM [5]: 62.3%; cytotoxicity at 100 µM [5]: 65%; CC50 ([5]; BT-474, BT474, concentration at which 50 % of the cells are dead, read-out: CTC50 (cytotoxicity concentration)): 2410 nM; cytotoxicity at 72 h, 0.005 µM [6]: 33.2%; cytotoxicity at 72 h, 0.015 µM [6]: 34.1%; cytotoxicity at 72 h, 0.045 µM [6]: 34.6%; cytotoxicity at 72 h, 0.13 µM [6]: 36.6%; cytotoxicity at 72 h, 0.41 µM [6]: 37.7%; cytotoxicity at 72 h, 1.23 µM [6]: 38%; cytotoxicity at 72 h, 3.7 µM [6]: 38.2%; cytotoxicity at 72 h, 11.11 µM [6]: 38.6%; cytotoxicity at 72 h, 33.33 µM [6]: 38.9%; cytotoxicity at 72 h, 100 µM [6]: 40.7%; IC50 [7]: 52.6 ± 16.7 µM
O=C(NS(=O)(=O)c1nnc(N=Cc2ccccc2O)s1)c1ccccc1 [Compound 9f, N-({5-[(2-Hydroxybenzylidene)amino]-1,3,4-thiadiazol-2-yl}sulfonyl)benzamide] | 220 to 222 | 36.7 ± 14.4 | 31.2 | 30.3 | 32.4 | 33.4 | 35 | 35.7 | 36.9 | 37.1 | 38.7 | 40.4 | 30.6 | 32.6 | 33.9 | 34.8 | 34.8 | 35.5 | 35.8 | 36.1 | cytotoxicity at 33.33 µM [5]: 38.2%; cytotoxicity at 100 µM [5]: 38.7%; cytotoxicity at 72 h, 0.005 µM [6]: 32.5%; cytotoxicity at 72 h, 0.015 µM [6]: 33.1%; cytotoxicity at 72 h, 0.045 µM [6]: 34%; cytotoxicity at 72 h, 0.13 µM [6]: 35.1%; cytotoxicity at 72 h, 0.41 µM [6]: 36.4%; cytotoxicity at 72 h, 1.23 µM [6]: 37.1%; cytotoxicity at 72 h, 3.7 µM [6]: 37.4%; cytotoxicity at 72 h, 11.11 µM [6]: 37.9%; cytotoxicity at 72 h, 33.33 µM [6]: 39.8%; cytotoxicity at 72 h, 100 µM [6]: 42.8%; IC50 [7]: 38 ± 11.8 µM
